From the NIST ThermoML archive (doi:10.1021/je060271a)

Details: Liquid, Vibrating tube method

CCCCCCCC(=O)OCC(COC(=O)CCCCCCC)(COC(=O)CCCCCCC)COC(=O)CCCCCCC [pentaerythritol tetraoctanoate]
Details	mass density [kg/m3]
323.15 K, 31267 kPa	960.2
323.15 K, 31296 kPa	960.3
323.15 K, 31325 kPa	960.2
323.15 K, 31360 kPa	960.3
323.15 K, 31389 kPa	960.2
323.15 K, 31418 kPa	960.1
323.15 K, 31452 kPa	960.2
323.15 K, 31481 kPa	960.3
323.15 K, 31510 kPa	960.4
323.15 K, 31540 kPa	960.4
323.15 K, 31575 kPa	960.3
323.15 K, 31604 kPa	960.4
323.15 K, 31640 kPa	960.3
323.15 K, 31669 kPa	960.4
323.15 K, 31699 kPa	960.3
323.15 K, 31731 kPa	960.4
323.15 K, 31761 kPa	960.4
323.15 K, 31785 kPa	960.4
323.15 K, 31827 kPa	960.5
323.15 K, 31856 kPa	960.5
323.15 K, 31892 kPa	960.5
323.15 K, 31922 kPa	960.5
323.15 K, 31952 kPa	960.6
323.15 K, 31987 kPa	960.6
323.15 K, 32018 kPa	960.7
323.15 K, 32048 kPa	960.5
323.15 K, 32084 kPa	960.6
323.15 K, 32115 kPa	960.6
323.15 K, 32147 kPa	960.7
323.15 K, 32178 kPa	960.7
323.15 K, 32208 kPa	960.8
323.15 K, 32244 kPa	960.7
323.15 K, 32275 kPa	960.8
323.15 K, 32305 kPa	960.6
323.15 K, 32343 kPa	960.8
323.15 K, 32374 kPa	960.8
323.15 K, 32404 kPa	960.6
323.15 K, 32442 kPa	960.8
323.15 K, 32467 kPa	960.8
323.15 K, 32504 kPa	961
323.15 K, 32542 kPa	960.9
323.15 K, 32574 kPa	960.9
323.15 K, 32605 kPa	961
323.15 K, 32642 kPa	960.9
323.15 K, 32706 kPa	961
323.15 K, 32744 kPa	961.1
323.15 K, 32776 kPa	961.1
323.15 K, 32838 kPa	961.1
323.15 K, 32877 kPa	961.1
323.15 K, 32909 kPa	961
323.15 K, 32941 kPa	961.1
323.15 K, 32980 kPa	961
323.15 K, 33012 kPa	961.2
323.15 K, 33050 kPa	961.1
323.15 K, 33083 kPa	961.2
323.15 K, 33115 kPa	961.2
323.15 K, 33147 kPa	961.2
323.15 K, 33186 kPa	961.2
323.15 K, 33219 kPa	961.3
323.15 K, 33258 kPa	961.2
323.15 K, 33291 kPa	961.3
323.15 K, 33324 kPa	961.3
323.15 K, 33363 kPa	961.4
323.15 K, 33396 kPa	961.5
323.15 K, 33429 kPa	961.3
323.15 K, 33470 kPa	961.4
323.15 K, 33503 kPa	961.3
323.15 K, 33536 kPa	961.6
323.15 K, 33576 kPa	961.4
323.15 K, 33610 kPa	961.5
323.15 K, 33644 kPa	961.5
323.15 K, 33685 kPa	961.5
323.15 K, 33720 kPa	961.6
323.15 K, 33755 kPa	961.5
323.15 K, 33797 kPa	961.6
323.15 K, 33833 kPa	961.5
323.15 K, 33870 kPa	961.6
323.15 K, 33916 kPa	961.7
323.15 K, 33952 kPa	961.7
323.15 K, 33982 kPa	961.7
323.15 K, 34010 kPa	961.8
323.15 K, 34034 kPa	961.7
323.15 K, 34058 kPa	961.7
323.15 K, 34086 kPa	961.7
323.15 K, 34110 kPa	961.8
323.15 K, 34134 kPa	961.8
323.15 K, 34159 kPa	961.8
323.15 K, 34188 kPa	961.9
323.15 K, 34213 kPa	961.9
323.15 K, 34242 kPa	961.8
323.15 K, 34268 kPa	961.9
323.15 K, 34294 kPa	961.8
323.15 K, 34321 kPa	962.1
323.15 K, 34354 kPa	962
323.15 K, 34382 kPa	961.9
323.15 K, 34411 kPa	962
323.15 K, 34448 kPa	962.1
323.15 K, 34472 kPa	961.9
323.15 K, 34473 kPa	962
323.15 K, 34474 kPa	962
323.16 K, 603.67 kPa	941
323.16 K, 875.73 kPa	941.2
323.16 K, 892.76 kPa	941.2
323.16 K, 910.31 kPa	941.3
323.16 K, 929.42 kPa	941.3
323.16 K, 952.34 kPa	941.3
323.16 K, 1561.9 kPa	941.8
323.16 K, 1605.8 kPa	941.7
323.16 K, 1638 kPa	941.7
323.16 K, 1659.1 kPa	941.7
323.16 K, 1674.9 kPa	941.8
323.16 K, 1688.1 kPa	941.8
323.16 K, 2395.8 kPa	942.3
323.16 K, 2562.1 kPa	942.5
323.16 K, 2571.5 kPa	942.4
323.16 K, 2579.5 kPa	942.4
323.16 K, 2587.6 kPa	942.5
323.16 K, 3525.4 kPa	943
323.16 K, 3596.1 kPa	943.1
323.16 K, 3609.1 kPa	943.2
323.16 K, 3622.8 kPa	943.1
323.16 K, 3638.9 kPa	943.2
323.16 K, 3652.2 kPa	943.2
323.16 K, 3663.5 kPa	943.2
323.16 K, 3682.5 kPa	943.1
323.16 K, 3696.6 kPa	943.1
323.16 K, 3864.6 kPa	943.3
323.16 K, 3879.5 kPa	943.3
323.16 K, 3913.1 kPa	943.3
323.16 K, 3928.7 kPa	943.4
323.16 K, 3945.2 kPa	943.3
323.16 K, 3960.6 kPa	943.3
323.16 K, 3976.2 kPa	943.4
323.16 K, 3991.8 kPa	943.3
323.16 K, 4010.5 kPa	943.3
323.16 K, 4025.5 kPa	943.3
323.16 K, 4044.2 kPa	943.5
323.16 K, 4061 kPa	943.5
323.16 K, 4225.4 kPa	943.5
323.16 K, 4242.4 kPa	943.6
323.16 K, 4245.7 kPa	943.5
323.16 K, 4456.7 kPa	943.7
323.16 K, 4480.6 kPa	943.7
323.16 K, 4501.4 kPa	943.6
323.16 K, 4587.3 kPa	943.7
323.16 K, 4633.2 kPa	943.7
323.16 K, 4694.8 kPa	943.8
323.16 K, 4742.6 kPa	943.9
